Source: article PMC10368641, “Expulsion mechanism of the substrate-translocating subunit in ECF transporters” (Nature Communications, 2023)

Tests used:
ECF-FolT2 [1] = target: T1, ECF-FolT2 (Lactobacillus delbrueckii, UniProt Q1G929+Q1GBI9+Q1GBJ0); experiment: cryo-EM structure, […] Å; assay type: binding; details: 5 mM Mg-AMP-PNP, 10 µM folate, 37 °C; both nucleotide sites; lipid nanodiscs
T1 construct: gene ecfA1; full complex EcfA-EcfA'-EcfT-FolT2, ~115 kDa; N-terminal His10-TEV tag, C-terminal StrepII tag on FolT2; expressed in E. coli MC1061; MSP2N2 lipid nanodiscs; with Energy-coupling factor transporter transmembrane protein EcfT

ECF-FolT2 [2] = target: T1, ECF-FolT2; experiment: cryo-EM structure, […] Å; assay type: binding; details: lipid nanodiscs
solitary ECF module = target: T2, solitary ECF module (Lactobacillus delbrueckii, UniProt Q1GBI9+Q1GBJ0); experiment: cryo-EM structure, […] Å; assay type: binding; details: Mg-ATP in both nucleotide sites, closed ATPase dimer; lipid nanodiscs; catalytically inactive double mutant 2EQcryo
T2 construct: gene ecfA1; EcfA-EcfA'-EcfT without S-component, ~92 kDa; N-terminal His10-TEV tag removed; expressed in E. coli MC1061; MSP2N2 lipid nanodiscs; with Energy-coupling factor transporter transmembrane protein EcfT

[3] = target: T3, solitary ECF module co-reconstituted with solitary FolT1 (Lactobacillus delbrueckii, UniProt Q1G930); experiment: radiolabelled folate uptake into proteoliposomes; assay type: biochemical; details: 100 nM folate, 5 mM lumenal Mg-ATP, 50 mM KPi pH 7.5, 30 °C; labelled compound
T3 construct: gene Ldb1624; FolT1 with N-terminal His8 tag from L. lactis NZ9000; ECF module from E. coli, tag removed by TEV; co-reconstituted into proteoliposomes; Energy-coupling factor transporter transmembrane protein EcfT

[4] = substrate: Nc1ncnc2c1ncn2[C@@H]1O[C@H](COP(=O)(O)OP(=O)(O)OP(=O)(O)O)[C@@H](O)[C@H]1O; experiment: enzyme-coupled (PK/LDH) spectrophotometric ATPase assay; assay type: biochemical, Lactobacillus delbrueckii; details: Mg-ATP 0-0.5 mM, 20 mM Tris pH 8.0, 150 mM NaCl, 37 °C, lipid nanodiscs

T1 sequence (Q1GBI8 entry or part of it, one chain of several, further chain): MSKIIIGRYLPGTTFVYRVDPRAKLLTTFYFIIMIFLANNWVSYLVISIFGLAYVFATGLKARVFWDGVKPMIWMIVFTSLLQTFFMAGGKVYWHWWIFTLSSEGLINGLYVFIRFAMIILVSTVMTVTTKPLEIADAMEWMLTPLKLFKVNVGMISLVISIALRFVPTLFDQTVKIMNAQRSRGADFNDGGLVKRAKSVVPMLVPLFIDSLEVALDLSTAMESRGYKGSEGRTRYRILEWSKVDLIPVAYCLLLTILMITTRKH
T1 sequence (Q1G929 entry or part of it, one chain of several): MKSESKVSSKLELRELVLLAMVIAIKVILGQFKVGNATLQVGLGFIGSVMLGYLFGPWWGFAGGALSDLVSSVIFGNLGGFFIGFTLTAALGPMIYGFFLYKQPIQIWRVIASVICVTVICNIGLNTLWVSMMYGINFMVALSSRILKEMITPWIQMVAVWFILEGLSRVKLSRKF
T3 sequence (Q1GBI8 entry or part of it, one chain of several): as the sequence (Q1GBI8 entry or part of it, one chain of several, further chain) above
T3 sequence (Q1GBJ0 whole entry, one chain of several, further chain): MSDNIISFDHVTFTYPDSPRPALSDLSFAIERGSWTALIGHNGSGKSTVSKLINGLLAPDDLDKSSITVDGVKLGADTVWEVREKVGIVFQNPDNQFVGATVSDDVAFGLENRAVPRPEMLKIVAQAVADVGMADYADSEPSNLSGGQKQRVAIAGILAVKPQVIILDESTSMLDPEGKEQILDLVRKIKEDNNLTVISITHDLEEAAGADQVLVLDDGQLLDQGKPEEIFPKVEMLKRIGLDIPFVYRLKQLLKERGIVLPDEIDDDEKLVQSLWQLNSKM
T3 sequence (Q1G930 entry or part of it, one chain of several): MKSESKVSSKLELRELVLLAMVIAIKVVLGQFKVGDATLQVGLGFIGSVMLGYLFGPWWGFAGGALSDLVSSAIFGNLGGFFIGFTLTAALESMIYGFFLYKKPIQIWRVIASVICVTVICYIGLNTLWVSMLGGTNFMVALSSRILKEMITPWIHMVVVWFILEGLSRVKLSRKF
T2 sequence (Q1GBI8 entry or part of it, one chain of several, further chain): as the sequence (Q1GBI8 entry or part of it, one chain of several, further chain) above

Nc1ncnc2c1ncn2[C@@H]1O[C@H](COP(=O)(O)OP(=O)(O)NP(=O)(O)O)[C@@H](O)[C@H]1O [AMP-PNP]
cryo-EM structure, 3.6 Å (ECF-FolT2 [1]): with AMP-PNP bound to both nucleotide-binding sites

Nc1ncnc2c1ncn2[C@@H]1O[C@H](COP(=O)(O)OP(=O)(O)OP(=O)(O)O)[C@@H](O)[C@H]1O [ATP]
cryo-EM structure, 3.2 Å (ECF-FolT2 [2]; 5 mM Mg-ATP, 10 µM folate, 37 °C, site in EcfA, adenine between EcfA Phe13 and FolT2 Arg174): ATP and ADP bound to the EcfA and EcfA’ subunits, respectively | cryo-EM structure, 2.6 Å (solitary ECF module): In both ATPase subunits, Mg-ATP is now bound and engaged with the signature motif

Nc1ncnc2c1ncn2[C@@H]1O[C@H](COP(=O)(O)OP(=O)(O)O)[C@@H](O)[C@H]1O [ADP]
cryo-EM structure, 3.2 Å (ECF-FolT2 [2]; 5 mM Mg-ATP added, site in EcfA'): ADP is bound exclusively by residues from the EcfA’ subunit

Nc1nc2ncc(CNc3ccc(C(=O)N[C@@H](CCC(=O)O)C(=O)O)cc3)nc2c(=O)[nH]1 [folate]
radiolabelled folate uptake into proteoliposomes [3]: Uptake of folate into the proteoliposome lumen only occurred in the presence of lumenal Mg-ATP

B1: solitary ECF module (Lactobacillus delbrueckii subsp. bulgaricus ATCC 11842 = JCM 1002) (protein)
chain 1: SDNIISFDHVTFTYPDSPRPALSDLSFAIERGSWTALIGHNGSGKSTVSKLINGLLAPDDLDKSSITVDGVKLGADTVWEVREKVGIVFQNPDNQFVGATVSDDVAFGLENRAVPRPEMLKIVAQAVADVGMADYADSEPSNLSGGQKQRVAIAGILAVKPQVIILDESTSMLDPEGKEQILDLVRKIKEDNNLTVISITHDLEEAAGADQVLVLDDGQLLDQGKPEEIFPKVEMLKRIGLDIPFVYRLKQLLKERGIVLPDEIDDDEKLVQSLWQLNSKM
chain 2: MAIKFENVSYVYSPGSPLEAIGLDQLNFSLEEGKFIALVGHTGSGKSTLMQHFNALLKPTSGKIEIAGYTITPETGNKGLKDLRRKVSLAFQFSEAQLFENTVLKDVEYGPRNFGFSEDEAREAALKWLKKVGLKDDLIEHSPFDLSGGQMRRVALAGVLAYEPEIICLDEPAAGLDPMGRLEMMQLFKDYQAAGHTVILVTHNMDDVADYADDVLALEHGRLIKHASPKEVFKDSEWLQKHHLAEPRSARFAAKLEAAGLKLPGQPLTMPELADAIKQSLKGGEHE
notes: EcfA-EcfA'-EcfT without S-component, ~92 kDa; N-terminal His10-TEV tag removed; expressed in E. coli MC1061; MSP2N2 lipid nanodiscs; with Energy-coupling factor transporter transmembrane protein EcfT
Km [4]: 136.2 µM
